The target in assay [1] is T1, Inhibitor of nuclear factor kappa-B kinase subunit epsilon (Homo sapiens) (UniProt Q14164).
T1 sequence (whole entry): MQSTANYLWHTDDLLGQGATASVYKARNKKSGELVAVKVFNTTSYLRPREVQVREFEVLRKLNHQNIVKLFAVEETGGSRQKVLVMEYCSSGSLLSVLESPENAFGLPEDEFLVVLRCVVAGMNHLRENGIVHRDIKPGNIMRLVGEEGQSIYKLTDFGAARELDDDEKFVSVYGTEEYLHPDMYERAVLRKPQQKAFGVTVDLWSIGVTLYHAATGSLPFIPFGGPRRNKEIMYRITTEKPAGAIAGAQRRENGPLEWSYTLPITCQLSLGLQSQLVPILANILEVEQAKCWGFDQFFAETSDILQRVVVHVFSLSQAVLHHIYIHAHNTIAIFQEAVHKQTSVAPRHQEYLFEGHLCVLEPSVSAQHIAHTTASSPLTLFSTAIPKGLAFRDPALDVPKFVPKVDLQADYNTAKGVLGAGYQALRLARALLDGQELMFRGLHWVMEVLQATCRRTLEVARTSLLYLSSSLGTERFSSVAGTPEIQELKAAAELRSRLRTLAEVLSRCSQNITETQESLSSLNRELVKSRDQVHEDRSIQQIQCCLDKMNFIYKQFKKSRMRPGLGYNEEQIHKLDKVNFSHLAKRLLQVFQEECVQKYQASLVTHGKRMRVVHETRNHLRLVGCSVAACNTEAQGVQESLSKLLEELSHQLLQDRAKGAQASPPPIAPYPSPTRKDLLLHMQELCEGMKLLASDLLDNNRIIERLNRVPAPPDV
The settings on record: at 1 µM.

For assay [2], the target named is T2, Inhibitor of nuclear factor kappa-B kinase subunit alpha (Homo sapiens) (UniProt O15111).
T2 sequence (whole entry): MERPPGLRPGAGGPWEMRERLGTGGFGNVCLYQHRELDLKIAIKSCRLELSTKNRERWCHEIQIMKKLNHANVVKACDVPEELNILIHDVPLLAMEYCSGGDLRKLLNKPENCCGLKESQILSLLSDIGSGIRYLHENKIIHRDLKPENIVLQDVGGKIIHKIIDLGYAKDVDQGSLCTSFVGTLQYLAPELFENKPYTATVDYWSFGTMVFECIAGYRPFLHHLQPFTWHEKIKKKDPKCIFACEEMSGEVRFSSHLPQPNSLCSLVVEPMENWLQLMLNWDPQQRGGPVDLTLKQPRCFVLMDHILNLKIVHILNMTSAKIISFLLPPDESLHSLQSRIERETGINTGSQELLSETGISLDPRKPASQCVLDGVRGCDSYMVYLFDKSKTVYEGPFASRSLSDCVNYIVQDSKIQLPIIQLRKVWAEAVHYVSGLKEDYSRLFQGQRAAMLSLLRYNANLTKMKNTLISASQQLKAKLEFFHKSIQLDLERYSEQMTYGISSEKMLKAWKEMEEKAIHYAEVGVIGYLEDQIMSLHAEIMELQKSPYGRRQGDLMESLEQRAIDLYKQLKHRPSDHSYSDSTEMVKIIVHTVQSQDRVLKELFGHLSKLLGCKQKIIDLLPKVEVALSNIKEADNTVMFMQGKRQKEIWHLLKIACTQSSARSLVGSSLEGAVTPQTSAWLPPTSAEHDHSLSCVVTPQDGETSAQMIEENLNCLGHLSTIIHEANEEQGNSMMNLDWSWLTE
The conditions noted are these: at 1 µM.

Each structure is given as a SMILES string. Values joined by “and” are separate entries in the source; they are usually repeats but may differ in a detail not shown here. Identical values can stand only once.

Broadly, the inhibition is the change of the read-out against control, counted positive when it falls.

`CCn1c(-c2nonc2N)nc2c(C#CC(C)(C)O)nc(OCCNC)cc21`: the inhibition in assay [1] was 44% and 46%; in assay [2], 6% and 5%.

As for `Cc1ccc2c(-c3ccnc(Nc4ccccc4)n3)c(-c3ccc(F)cc3)nn2n1`, the inhibition is -1% and 0% in assay [1]; 2% and 1% in assay [2].

As for `CS(=O)(=O)CCNCc1ccc(-c2ccc3ncnc(Nc4ccc(OCc5ccccc5)cc4)c3c2)o1`, the inhibition was -1% in assay [1] and 3% in assay [2].

For `NC(=O)c1sc(-n2cnc3ccc(C(F)(F)F)cc32)cc1OCc1ccccc1Br`, the inhibition is 2% and 1% in assay [1]; 1% and 0% in assay [2].

In the case of `CS(=O)(=O)Nc1cccc(-c2ccc3c(NC(=O)C4CC4)n[nH]c3c2)c1`, the inhibition in assay [1] was 0%; in assay [2], 4% and 3%.

These data come from ChEMBL document CHEMBL2007661, “Compounds: GSK PKIS; Assays: UNC Frye lab” (2012).
